According to US10975068B2, “6-aminopyridin-3-yl thiazoles as modulators of RORγT” (Janssen Pharmaceutica NV, priority 2016, dated 2021):
Like-named read-outs stand apart in the source and are kept apart here.

What was measured:
[1] = biological target: full-length human RORγt (Homo sapiens (Human), UniProt P51449); test: RORγt (full-length human) reporter assay, Conditions B or C; assay type: cell-based; conditions: for RORγt (FL) Reporter Assay B or C, % inhibition (value marked *): marked *: footnote not given; for inhibition at 3 µM: at 3 μM compound concentration; for inhibition at 3 µM / inhibition at 1 µM: read-out: RORγt (FL) Reporter Assay B or C, % inhibition; for inhibition at 1 µM: at 1 μM compound concentration
Chain of full-length human RORγt (P51449 other isoform, or with tags, fused parts or gaps): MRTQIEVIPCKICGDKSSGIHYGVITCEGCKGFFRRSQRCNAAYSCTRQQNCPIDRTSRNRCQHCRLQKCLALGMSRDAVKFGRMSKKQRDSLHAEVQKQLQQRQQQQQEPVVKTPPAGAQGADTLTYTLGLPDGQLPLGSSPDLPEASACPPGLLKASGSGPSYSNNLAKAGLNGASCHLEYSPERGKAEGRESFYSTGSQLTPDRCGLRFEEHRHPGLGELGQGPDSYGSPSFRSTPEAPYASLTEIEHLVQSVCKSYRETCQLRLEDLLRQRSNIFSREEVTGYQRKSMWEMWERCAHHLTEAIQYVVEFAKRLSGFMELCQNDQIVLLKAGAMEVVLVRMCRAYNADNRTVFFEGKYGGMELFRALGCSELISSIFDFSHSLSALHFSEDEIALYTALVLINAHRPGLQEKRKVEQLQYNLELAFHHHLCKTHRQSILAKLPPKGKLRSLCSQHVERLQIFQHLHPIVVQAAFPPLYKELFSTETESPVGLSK
Method in brief: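 HEK293T cells transiently co-transfected with GAL4-DBD–full-length human RORγt (nt 142-1635, NM_001001523.1) plus GAL4-firefly and CMV-Renilla luciferase reporters; compounds added 4-6 h post-transfection for 16-20 h in 1.3% FBS, 0.1% DMSO. Firefly signal normalized to DMSO and saturating reference compound, then to Renilla; IC50 from concentration plots.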

[2] = biological target: human RORγt ligand binding domain (RORγt LBD) (Homo sapiens (Human), UniProt P51449); test: RORγt ThermoFluor® assay (thermal shift binding); conditions: read-out: ThermoFluor® Assay, Kd
Chain of human RORγt ligand binding domain (RORγt LBD) (P51449 other isoform, or with tags, fused parts or gaps): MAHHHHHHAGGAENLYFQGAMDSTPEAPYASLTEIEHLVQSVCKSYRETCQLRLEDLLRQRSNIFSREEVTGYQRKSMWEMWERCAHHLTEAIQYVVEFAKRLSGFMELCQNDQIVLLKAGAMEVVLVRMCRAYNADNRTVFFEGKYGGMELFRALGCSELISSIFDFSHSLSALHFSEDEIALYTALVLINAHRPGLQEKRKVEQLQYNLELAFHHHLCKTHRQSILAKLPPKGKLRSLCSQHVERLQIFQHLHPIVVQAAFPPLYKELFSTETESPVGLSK
Method in brief: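 His-tagged human RORγt LBD (0.065 mg/mL) with 60 μM 1,8-ANS in 100 mM Hepes pH 7.0, 10 mM NaCl, 2.5 mM GSH, 0.002% Tween-20 was heated at 1 °C/min.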

[3] = Conditions B or C, read-out: RORγt (FL) Reporter Assay B or C, IC50
[4] = read-out: RORγt (FL) Reporter Assay B or C, IC50

| SMILES | RORγt (FL) Reporter Assay B or C, % inhibition (value marked *) ([1]; Conditions B or C) | IC50 [1, 3] | Kd [2] | inhibition at 3 µM [1] | IC50 [1, 4] | further results |
| --- | --- | --- | --- | --- | --- | --- |
| C[C@H]1CCCN1C(=O)c1nc(C(=O)NCC2(O)COC2)sc1-c1cnc(NC2CCCC2)cc1C(F)F [Example 73, (S)-5-(6-(Cyclopentylamino)-4-(difluoromethyl)pyridin-3-yl)-N-((3-hydroxyoxetan-3-yl)methyl)-4-(2-methylpyrrolidine-1-carbonyl)thiazole-2-carboxamide] | 104* % | 0.074 µM | 11 nM |  |  |  |
| C[C@H](Nc1cc(C(F)(F)F)c(-c2sc(C(=O)NCC(C)(C)O)nc2C(=O)N2C3CCC2CC3)cn1)C1CCC1 (stereo in doubt) [Example 171, 4-((1s,4s)-7-Azabicyclo[2.2[1]heptane-7-carbonyl)-5-(6-(((S*)-1-cyclobutylethyl)amino)-4-(trifluoromethyl)pyridine-3-yl)-N-(2-hydroxy-2-methylpropyl)thiazole-2-carboxamide] | 108* % | 0.016 µM | 4 nM |  |  |  |
| C[C@H]1CCCN1C(=O)c1nc(C(=O)NC2CCOCC2)sc1-c1cnc(NC(C)(C)C)cc1C(F)(F)F [Example 374, 5-[6-(tert-Butylamino)-4-(trifluoromethyl)-3-pyridyl]-4-[(2S)-2-methylpyrrolidine-1-carbonyl]-N-tetrahydropyran-4-yl-thiazole-2-carboxamide] |  |  | 1.6 nM | 121% | 0.0048 µM |  |
| C[C@H]1CCCN1C(=O)c1nc(C(=O)N2CCC(C)(O)C2)sc1-c1cnc(NC(C)(C)C)cc1C(F)(F)F (stereo partly drawn) [Example 364, (5-(6-(tert-Butylamino)-4-(trifluoromethyl)pyridin-3-yl)-2-(3-hydroxy-3-methylpyrrolidine-1-carbonyl)thiazol-4-yl)((S)-2-methylpyrrolidin-1-yl)methanone] |  |  | 7.9 nM | 111% | 0.039 µM |  |
| C[C@H]1CC(F)(F)CN1C(=O)c1nc(C(=O)NCC(C)(C)O)sc1-c1cnc(NC2CCCC2)cc1C(F)F [Example 44, (S)-5-(6-(Cyclopentylamino)-4-(difluoromethyl)pyridin-3-yl)-4-(4,4-difluoro-2-methylpyrrolidine-1-carbonyl)-N-(2-hydroxy-2-methylpropyl)thiazole-2-carboxamide] |  | 0.02 µM | 2.5 nM |  |  | inhibition at 6 µM ([1]; read-out: RORγt (FL) Reporter Assay B or C, % inhibition @ 6 μM, Conditions B or C, @ 6 μM): 111% |
| C[C@H]1CCCN1C(=O)c1nc(C(=O)NCC(C)(C)N)sc1-c1cnc(NC(C)(C)C)cc1C(F)(F)F [Example 355, N-(2-Amino-2-methyl-propyl)-5-[6-(tert-butylamino)-4-(trifluoromethyl)-3-pyridyl]-4-[(2S)-2-methylpyrrolidine-1-carbonyl]thiazole-2-carboxamide] |  |  | 22 nM | 98% | 0.17 µM |  |
| C[C@H]1CC(F)(F)CN1C(=O)c1nc(C(=O)NC2CCS(=O)(=O)CC2)sc1-c1cnc(NC2(C)CCC2)cc1C(F)F [Example 328, (S)-4-(4,4-Difluoro-2-methylpyrrolidine-1-carbonyl)-5-(4-(difluoromethyl)-6-((1-methylcyclobutyl)amino)pyridin-3-yl)-N-(1,1-dioxidotetrahydro-2H-thiopyran-4-yl)thiazole-2-carboxamide] |  |  | 0.31 nM | 87% | 0.051 µM |  |
| C[C@H](Nc1cc(C(F)(F)F)c(-c2sc(C(=O)NCC(C)(C)O)nc2C(=O)N2C3CCC2CC3)cn1)C(F)(F)F [Example 82, 4-((1s,4s)-7-Azabicyclo[2.2.1]heptane-7-carbonyl)-N-(2-hydroxy-2-methylpropyl)-5-(4-(trifluoromethyl)-6-(((S)-1,1,1-trifluoropropan-2-yl)amino)pyridin-3-yl)thiazole-2-carboxamide] | 117* % |  | 4.8 nM |  |  | IC50 ([1]; RORγt (FL) Reporter Assay B or C, IC50 (μM), Conditions B or C): 0.079 µM |
| C[C@H](Nc1cc(C(F)F)c(-c2sc(C(=O)N[C@@H]3C[C@H]3O)nc2C(=O)N2CCC[C@@H]2C)cn1)C(F)(F)F (single isomer, unassigned) [Example 157, 5-(4-(Difluoromethyl)-6-(((S)-1,1,1-trifluoropropan-2-yl)amino)pyridin-3-yl)-N-((1R*,2R*)-2-hydroxycyclopropyl)-4-((S)-2-methylpyrrolidine-1-carbonyl)thiazole-2-carboxamide] | 89* % | 0.19 µM | 32 nM |  |  |  |
| CC[C@H](Nc1cc(C(F)F)c(-c2sc(C(=O)N[C@H]3CC[C@H](O)C3)nc2C(=O)N2CCC[C@@H]2C)cn1)C(F)(F)F [Example 398, 5-[4-(Difluoromethyl)-6-[[(1S)-1-(trifluoromethyl)propyl]amino]-3-pyridyl]-N-[(1S,3S)-3-hydroxycyclopentyl]-4-[(2S)-2-methylpyrrolidine-1-carbonyl]thiazole-2-carboxamide] |  |  | 1.5 nM | 109% | 0.039 µM |  |
| O=C(N[C@H]1COC[C@@H]1O)c1nc(C(=O)N2C3CCC2CC3)c(-c2cnc(N[C@@H](C3CC3)C(F)(F)F)cc2C(F)F)s1 [Example 417, 4-((1s,4s)-7-Azabicyclo[2.2.1]heptane-7-carbonyl)-5-[6-[[(1S)-1-cyclopropyl-2,2,2-trifluoro-ethyl]amino]-4-(difluoromethyl)-3-pyridyl]-N-[(3S,4R)-4-hydroxytetrahydrofuran-3-yl]thiazole-2-carboxamide] |  |  | 2.4 nM |  |  | IC50 ([1]; RORγt (FL) Reporter Assay B or C, IC50): 0.028 µM; inhibition at 1 µM [1]: 94% |
| C[C@H]1CCCCN1C(=O)c1nc(C(=O)NCC(C)(C)O)sc1-c1cnc(NC(C)(C)C)cc1C(F)(F)F [Example 80, (S)-5-(6-(tert-Butylamino)-4-(trifluoromethyl)pyridin-3-yl)-N-(2-hydroxy-2-methylpropyl)-4-(2-methylpiperidine-1-carbonyl)thiazole-2-carboxamide] | 111* % | 0.0047 µM | 0.19 nM |  |  |  |

Continued by falling Kd [2], values first:

| RORγt (FL) Reporter Assay B or C, % inhibition (value marked *) ([1]; Conditions B or C) | IC50 [1, 3] | Kd [2] | inhibition at 3 µM [1] | IC50 [1, 4] | SMILES | further results |
| --- | --- | --- | --- | --- | --- | --- |
|  |  | 8.2 nM |  | 0.15 µM | C[C@H]1CCCN1C(=O)c1nc(C(=O)N[C@H]2C[C@H](O)C2)sc1-c1cnc(NC2(C)CCC2)cc1C(F)F [Example 323, 5-(4-(Difluoromethyl)-6-((1-methylcyclobutyl)amino)pyridin-3-yl)-N-((1r,3S)-3-hydroxycyclobutyl)-4-((S)-2-methylpyrrolidine-1-carbonyl)thiazole-2-carboxamide] | inhibition at 1 µM [1]: 97% |
|  |  | 8.1 nM | 111% | 0.11 µM | C[C@H](CO)NC(=O)c1nc(C(=O)N2CCC[C@@H]2C)c(-c2cnc(N[C@@H](C)C(F)(F)F)cc2C(F)F)s1 [Example 284, 5-(4-(Difluoromethyl)-6-(((S)-1,1,1-trifluoropropan-2-yl)amino)pyridin-3-yl)-N—((R)-1-hydroxypropan-2-yl)-4-((S)-2-methylpyrrolidine-1-carbonyl)thiazole-2-carboxamide] |  |
| 95* % | 0.055 µM | 5.8 nM |  |  | C[C@H]1CCCN1C(=O)c1nc(C(=O)NCC(C)(C)O)sc1-c1cnc(NC2(C)CCC2)cc1C(F)F [Example 173] |  |
|  | 0.044 µM | 5.8 nM |  |  | C[C@H](Nc1cc(C(F)(F)F)c(-c2sc(C(=O)NCC(C)(C)O)nc2C(=O)N2CCC[C@@H]2C)cn1)C1CCC1 (relative stereo) [Example 175, 5-(6-(((S*)-1-Cyclobutylethyl)amino)-4-(trifluoromethyl)pyridine-3-yl)-N-(2-hydroxy-2-methylpropyl)-4-(((S)-2-methylpyrrolidine-1-carbonyl)thiazole-2-carboxamide] | RORγt (FL) Reporter Assay B or C, % inhibition (value marked ***) ([1]; Conditions B or C, marked ***: footnote not given): 119*** % |
|  |  | 2.9 nM | 108% | 0.014 µM | C[C@H]1CCCN1C(=O)c1nc(C(=O)NCC(C)(C)O)sc1-c1cnc(N[C@@H](C2CC2)C(F)(F)F)cc1C(F)F [Example 295] |  |
|  |  | 1.6 nM | 104% | 0.02 µM | C[C@H]1CCCN1C(=O)c1nc(C(=O)NC2(CO)CCC2)sc1-c1cnc(NC(C)(C)C)cc1C(F)(F)F [Example 262, 5-[6-(tert-Butylamino)-4-(trifluoromethyl)-3-pyridyl]-N-[1-(hydroxymethyl)cyclobutyl]-4-[(2S)-2-methylpyrrolidine-1-carbonyl]thiazole-2-carboxamide] |  |
| 106* % | 0.02 µM | 0.78 nM |  |  | CC(Nc1cc(C(F)(F)F)c(-c2sc(C(=O)NCC(C)(C)O)nc2C(=O)N2CC(F)(F)C[C@@H]2C)cn1)C1CCC1 (stereo partly drawn) [Example 161, 5-(6-((1-Cyclobutylethyl)amino)-4-(trifluoromethyl)pyridine-3-yl)-4-((S)-4,4-difluoro-2-methylpyrrolidine-1-carbonyl)-N-(2-hydroxy-2-methylpropyl)thiazole-2-carboxamide] |  |
| 105* % | 0.0093 µM | 0.17 nM |  |  | C[C@H]1CCCCN1C(=O)c1nc(C(=O)NCC(C)(C)O)sc1-c1cnc(NC2(C)CCC2)cc1C(F)(F)F [Example 81, (S)—N-(2-Hydroxy-2-methylpropyl)-5-(6-((1-methylcyclobutyl)amino)-4-(trifluoromethyl)pyridin-3-yl)-4-(2-methylpiperidine-1-carbonyl)thiazole-2-carboxamide] |  |
